Source: ChEMBL document CHEMBL1201862, “PubChem BioAssay data set” (2004)
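Cells were grown in 96-well plates and exposed to each compound for 48 hours at five concentrations; endpoints were interpolated linearly between bracketing concentrations, or set to the highest concentration if not reached. At the GI50, growth is halved.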 The source made the active and inactive calls. Rule as the data show it: active = GI50 up to about 1.1 µM and inactive = higher. Where a SMILES comes first, the peptide text is derived from it. The star is where a group is joined. Cbz = O=C(OCc1ccccc1)*; Boc = CC(C)(C)OC(=O)*; OSu = O=C1CCC(=O)N1O*; Bn = c1ccc(C*)cc1

Experiments:
Assay in all cases: inhibition of tumour cell growth, NCI panel, 48 h
NCI-H226 = test system: NCI-H226
TK-10 = test system: TK-10
SR = test system: SR
PC-3 = test system: PC-3
MDA-MB-231 = test system: MDA-MB-231
CCRF-CEM = test system: CCRF-CEM
HL-60 = test system: HL-60
OVCAR-4 = test system: OVCAR-4
T47D = test system: T47D
OVCAR-5 = test system: OVCAR-5
SN12C = test system: SN12C
UO-31 = test system: UO-31
HCT-15 = test system: HCT-15
HT-29 = test system: HT-29
SK-MEL-28 = test system: SK-MEL-28
MDA-N = test system: MDA-N
MCF7 = test system: MCF7
NCI-H23 = test system: NCI-H23
SF-539 = test system: SF-539
BT-549 = test system: BT-549

Compound | GI50 (NCI-H226) | GI50 (TK-10) | GI50 (SR) | GI50 (PC-3) | GI50 (MDA-MB-231) | GI50 (CCRF-CEM) | GI50 (HL-60) | GI50 (OVCAR-4) | GI50 (T47D) | GI50 (OVCAR-5) | GI50 (SN12C) | GI50 (UO-31) | GI50 (HCT-15) | GI50 (HT-29) | GI50 (SK-MEL-28) | GI50 (MDA-N) | GI50 (MCF7) | GI50 (NCI-H23) | GI50 (SF-539) | GI50 (BT-549)
COC(=O)CC1C2CC3C(C2=O)C13 (stereo not drawn) | > 100 µM (inactive) | > 100 µM (inactive) | > 100 µM (inactive) | > 100 µM (inactive) | > 100 µM (inactive) | > 100 µM (inactive) | 33.6 µM (inactive) | > 100 µM (inactive) | > 100 µM (inactive) | > 100 µM (inactive) | > 100 µM (inactive) | > 100 µM (inactive) | > 100 µM | > 100 µM (inactive) | > 100 µM (inactive) | > 100 µM (inactive) | > 100 µM (inactive) | > 100 µM (inactive) | > 100 µM (inactive) | –
CCCCOCn1c(=O)[nH]c(=O)c2ccccc21 | 49.5 µM (inactive) | > 100 µM (inactive) | > 100 µM (inactive) | – | 33.3 µM (inactive) | > 100 µM (inactive) | 68.4 µM (inactive) | 35.7 µM (inactive) | – | > 100 µM (inactive) | > 100 µM (inactive) | 13.1 µM (inactive) | > 100 µM | 40.3 µM (inactive) | > 100 µM (inactive) | > 100 µM (inactive) | 68.9 µM (inactive) | – | > 100 µM (inactive) | –
Cc1nc2ccc(Cl)cc2c2c1CCS2 | 51.6 µM (inactive) | 69.2 µM (inactive) | 40.9 µM (inactive) | 36.6 µM (inactive) | 49.2 µM (inactive) | 46 µM (inactive) | 27.2 µM (inactive) | 26.8 µM (inactive) | > 100 µM (inactive) | > 100 µM (inactive) | 42 µM (inactive) | 4.09 µM (inactive) | > 100 µM | 41.8 µM (inactive) | > 100 µM (inactive) | > 100 µM (inactive) | 33.3 µM (inactive) | 75 µM (inactive) | 87.5 µM (inactive) | –
OC[C@H]1O[C@@H](Oc2cc(O)cc(/C=C/c3ccc(O)cc3)c2)[C@H](O)[C@@H](O)[C@@H]1O [PICEID] | > 100 µM (inactive) | > 100 µM (inactive) | > 100 µM (inactive) | > 100 µM (inactive) | > 100 µM (inactive) | > 100 µM (inactive) | > 100 µM (inactive) | > 100 µM (inactive) | – | > 100 µM (inactive) | > 100 µM (inactive) | > 100 µM (inactive) | > 100 µM | > 100 µM (inactive) | > 100 µM (inactive) | > 100 µM (inactive) | > 100 µM (inactive) | – | > 100 µM (inactive) | > 100 µM (inactive)
O=C(/C=C/c1ccccc1)CSc1nc[nH]n1 | > 100 µM (inactive) | > 100 µM (inactive) | 62.1 µM (inactive) | > 100 µM (inactive) | – | 34.8 µM (inactive) | 45.9 µM (inactive) | > 100 µM (inactive) | – | > 100 µM (inactive) | > 100 µM (inactive) | > 100 µM (inactive) | 41.3 µM | 44.4 µM (inactive) | 56.9 µM (inactive) | > 100 µM (inactive) | 36.4 µM (inactive) | > 100 µM (inactive) | > 100 µM (inactive) | > 100 µM (inactive)
ClC1=C(Cl)C2OC3C=CCC3OC2C(Cl)=C1Cl (stereo not drawn) | 95.3 µM (inactive) | > 100 µM (inactive) | 35.3 µM (inactive) | 39.7 µM (inactive) | > 100 µM (inactive) | 40.1 µM (inactive) | 36.1 µM (inactive) | > 100 µM (inactive) | 2.47 µM (inactive) | > 100 µM (inactive) | – | > 100 µM (inactive) | 32.1 µM | 21.3 µM (inactive) | > 100 µM (inactive) | 51.3 µM (inactive) | 0.429 µM (active) | 56.4 µM (inactive) | > 100 µM (inactive) | –
CC(NC(=O)OC(C)(C)C)C(=O)NC(Cc1ccccc1)C(=O)NCC(=O)Oc1c(Cl)c(Cl)c(Cl)c(Cl)c1Cl (stereo not drawn) | 17.7 µM (inactive) | 27 µM (inactive) | 25 µM (inactive) | 20.3 µM (inactive) | 16.6 µM (inactive) | – | 24.7 µM (inactive) | – | – | 19 µM (inactive) | 14.5 µM (inactive) | 14.2 µM (inactive) | > 10 µM | 23.7 µM (inactive) | 20.7 µM (inactive) | 28.2 µM (inactive) | 21.9 µM (inactive) | 18.7 µM (inactive) | – | 23.5 µM (inactive)
COc1ccc2c(C)cc(=O)oc2c1OC | > 100 µM (inactive) | > 100 µM (inactive) | > 100 µM (inactive) | > 100 µM (inactive) | > 100 µM (inactive) | > 100 µM (inactive) | – | > 100 µM (inactive) | – | > 100 µM (inactive) | > 100 µM (inactive) | > 100 µM (inactive) | > 100 µM | > 100 µM (inactive) | > 100 µM (inactive) | > 100 µM (inactive) | > 100 µM (inactive) | > 100 µM (inactive) | – | –
Nc1ccc2c(c1)Nc1c3ccccc3nc3cccc-2c13 | 1.62 µM (inactive) | 2.13 µM (inactive) | 0.281 µM (active) | 1.54 µM (inactive) | 1.35 µM (inactive) | 3.85 µM (inactive) | 3.66 µM (inactive) | 1.72 µM (inactive) | – | 1.77 µM (inactive) | 1.29 µM (inactive) | 1.72 µM (inactive) | – | 1.18 µM (inactive) | 1.99 µM (inactive) | 1.42 µM (inactive) | 0.794 µM (active) | 1.48 µM (inactive) | 1.66 µM (inactive) | 3.6 µM (inactive)
COc1cc(NCc2ccc3nc(-c4ccccc4)c(N)nc3c2)cc(OC)c1OC | 27.5 µM (inactive) | 41.4 µM (inactive) | 37.8 µM (inactive) | 28.2 µM (inactive) | 36 µM (inactive) | 31.6 µM (inactive) | 25.6 µM (inactive) | 29.3 µM (inactive) | 25.9 µM (inactive) | > 100 µM (inactive) | 38.5 µM (inactive) | 29.2 µM (inactive) | 28.7 µM | 32.9 µM (inactive) | 27.4 µM (inactive) | 27.5 µM (inactive) | 28.5 µM (inactive) | 21.4 µM (inactive) | 29.7 µM (inactive) | –
CCCC1(CCC)c2cc(/C=N\O)ccc2-c2ccc(-c3ccc(C(C)(C)C)cc3)cc21 | – | 39 µM (inactive) | 25.9 µM (inactive) | 59.6 µM (inactive) | 19.5 µM (inactive) | 29.2 µM (inactive) | 20.7 µM (inactive) | > 100 µM (inactive) | 57.5 µM (inactive) | > 100 µM (inactive) | 23.1 µM (inactive) | > 100 µM (inactive) | > 100 µM | > 100 µM (inactive) | 26.7 µM (inactive) | 57.3 µM (inactive) | 25.6 µM (inactive) | 48.3 µM (inactive) | > 100 µM (inactive) | –
COc1cc(Br)cc2cc(-c3cn4c(n3)sc3ccccc34)c(=O)oc12 | – | 45.4 µM (inactive) | 21.6 µM (inactive) | 16.3 µM (inactive) | 21.2 µM (inactive) | 20.4 µM (inactive) | 15.6 µM (inactive) | 26.1 µM (inactive) | – | 39 µM (inactive) | 24.7 µM (inactive) | 18.7 µM (inactive) | 23.6 µM | 29.5 µM (inactive) | – | – | 35.6 µM (inactive) | 21.2 µM (inactive) | 30.9 µM (inactive) | 24.3 µM (inactive)
CCN(CC)CCN1CCN=C2c3cc(OC)ccc3Nc3c([N+](=O)[O-])ccc1c32 | – | 2.8 µM (inactive) | 0.221 µM (active) | 0.697 µM (active) | 0.671 µM (active) | 0.388 µM (active) | 0.519 µM (active) | 1.07 µM (active) | 5.65 µM (inactive) | – | 0.667 µM (active) | – | 0.845 µM | 0.881 µM (active) | 1 µM (active) | 1.04 µM (active) | 0.551 µM (active) | 1.1 µM (active) | – | –
O=C1CCC2CCOc3ccc(O)c1c32 (stereo not drawn) | > 100 µM (inactive) | > 100 µM (inactive) | > 100 µM (inactive) | – | – | > 100 µM (inactive) | > 100 µM (inactive) | > 100 µM (inactive) | – | > 100 µM (inactive) | > 100 µM (inactive) | > 100 µM (inactive) | > 100 µM | > 100 µM (inactive) | > 100 µM (inactive) | – | – | > 100 µM (inactive) | > 100 µM (inactive) | –
O=S(=O)(O)c1cc(/N=N/c2c(O)ccc3ccccc23)c2c(S(=O)(=O)O)cccc2c1 | > 100 µM (inactive) | > 100 µM (inactive) | > 100 µM (inactive) | > 100 µM (inactive) | > 100 µM (inactive) | > 100 µM (inactive) | > 100 µM (inactive) | > 100 µM (inactive) | – | > 100 µM (inactive) | – | > 100 µM (inactive) | > 100 µM | > 100 µM (inactive) | > 100 µM (inactive) | – | > 100 µM (inactive) | > 100 µM (inactive) | > 100 µM (inactive) | > 100 µM (inactive)
CC(C)(C)OC(=O)NC(Cc1ccc(OCc2ccccc2)cc1)C(=O)NC(CCCCNC(=O)OCc1ccccc1)C(=O)ON1C(=O)CCC1=O (stereo not drawn) (Boc-Tyr(Bn)-Lys(Cbz)-OSu; configuration not given here) | 29.2 µM (inactive) | 29.6 µM (inactive) | 25.4 µM (inactive) | 22.1 µM (inactive) | 22.3 µM (inactive) | – | 22 µM (inactive) | – | – | 31.3 µM (inactive) | 16.7 µM (inactive) | 21.6 µM (inactive) | 16.7 µM | 23.5 µM (inactive) | 15.8 µM (inactive) | 15.7 µM (inactive) | 19.8 µM (inactive) | 17.8 µM (inactive) | – | 21.6 µM (inactive)
